In publication PMC11659602, “Discovering covalent cyclic peptide inhibitors of peptidyl arginine deiminase 4 (PADI4) using mRNA-display with a genetically encoded electrophilic warhead” (Communications Chemistry, 2024):
Where “and” joins values, the source holds several entries; their conditions need not be identical. Equal values may be shown once. Read-outs that look alike come from different tables or passages of the source. Where a SMILES comes first, the peptide text is derived from it. Bridges are numbered along the chain shown (N, C = ends). [ ]: non-standard residue; d: D form. Orn(fluoroacetimidoyl) = N=C(CF)NCCC[C@H](N)C(=O)O

Key:
[1] = test system: PADIs 1-4; experiment: COLDER citrullination activity of purified PADIs 1-4 and PADI4 C645A (no inhibitor); format: biochemical, human; parameters: key to Citrullination activity of PADI4 WT / C645A (Figure S4c): absorbance at 540 nm (colorimetric citrulline readout); conditions: for Citrullination activity of PADI4 WT / C645A (Figure S4c): no inhibitor; for Absorbance at 540 nm: purified PADI enzyme, no inhibitor (Figure S10)
Description: (§1) PADI4 citrullination activity was analysed using the COLDER assay in 96-well plates. Peptide dilutions were prepared from a 500 µM stock, to give a 10 times concentrated dilution series (500 µM, 300 µM, 100 µM, 30 µM, 10 µM, 3 µM, 1 µM, 0.3 µM, 0.1 µM and 0.03 µM) in COLDER buffer (50 mM HEPES, 150 mM NaCl and 2 mM DTT, pH 7.5) containing 1% DMSO. In triplicate, each was diluted 10-fold further when mixed with 50 nM His-PADI4, 0.6 mg/mL BSA and 10 mM CaCl2, in COLDER buffer. With or without one hour of incubation, 10 mM N^α-Benzoyl-L-arginine ethyl ester hydrochloride (BAEE, Merck) was added to initiate the reaction (50 µL final volume). After 30 min at rt, EDTA (50 mM final concentration) was used to quench the reaction and 200 µL of COLDER solution containing 20 mM Diacetyl monoxime/2,3-butanedione monoxime (Merck), 0.5 mM Thiosemicarbazide (Acros Organics), 2.25 M H3PO4, 4.5 M H2SO4 and 1.5 mM NH4Fe(SO4)2.12H2O was added to each well. Samples were incubated for 20 min at 95 °C before measuring absorbance at 540 nm on a CLARIOstar Plus (BMG LABTECH). Data analysis was performed with GraphPad Prism. Data are presented as the average ± standard error of the mean from at least two independent replicates.

[2] = molecular target: T1, PADI4 (Homo sapiens, UniProt Q9UM07); experiment: COLDER inhibition assay, BAEE substrate, with or without 1 h preincubation; format: biochemical; conditions: for IC50: COLDER; for remaining activity at 0.003 µM: peptide 0.003 µM; for remaining activity at 0.01 µM: peptide 0.01 µM; for remaining activity at 0.03 µM: peptide 0.03 µM; for remaining activity at 0.1 µM: peptide 0.1 µM; for remaining activity at 1 µM: peptide 1 µM; for remaining activity at 3 µM: peptide 3 µM; for remaining activity at 10 µM: peptide 10 µM
T1 construct: His6; made in house
Description: as §1

[3] = molecular target: T1, PADI4; experiment: Incubation time-dependent COLDER assay IC50(t), Krippendorff fit; format: biochemical; conditions: for IC50: replicates, read-out: apparent IC50; for Ki / kinact: Krippendorff fit of IC50 vs time
Description: To determine KI and kinact of covalent peptide inhibitors, COLDER assays were used[52]. Peptide dilutions were prepared using 5-fold dilutions from 500 µM and 300 µM to 0.8 µM and 2.4 µM, respectively, at 1% DMSO in COLDER buffer (50 mM HEPES, 150 mM NaCl and 2 mM DTT, pH 7.5). The 9 peptide dilutions were added to a 96-well plate, alongside a 1% DMSO control. An equal volume of 10 mM BAEE was added to each well and the solution was homogenised by pipette mixing. This was mixed with 50 nM His-PADI4, 0.6 mg/mL BSA and 10 mM CaCl2, in COLDER buffer, to bring the final volume to 300 µL in each well. Alternatively, His-PAD1 (100 nM) /His-PADI2 (100 nM) /His-PADI3 (250 nM) were used. For assays with PADI1 and PADI3, 10 mM N^α-benzoyl-L-arginine methyl […] (BAME) was used as the substrate instead of BAEE[48],[58],[59]. At 15-minute intervals, for 5 timepoints, 50 µL of solution was taken from each well and quenched with 10 µL EDTA (300 mM). 200 µL of COLDER solution containing 20 mM diacetyl monoxime/2,3-butanedione monoxime (Merck), 0.5 mM thiosemicarbazide (Acros Organics), 2.25 M H3PO4, 4.5 M H2SO4 and 1.5 mM NH4Fe(SO4)2.12H2O was added to each well. Samples were incubated for 20 min at 95 °C before measuring absorbance at 540 nm on a CLARIOstar Plus (BMG LABTECH). IC50 values for each time point were determined using non-linear regression with GraphPad Prism. Incubation time–dependent potency IC50(t) against incubation time was fitted to the Krippendorff equation (below) to determine KI and kinact using a Python script[53],[59]. […] IC50t=KI1+S/KM⋅2−2e^−ηIC50⋅kinact⋅t/ηIC50⋅kinact⋅t−1 WhereηIC50=IC50t/KI1+S/KM+IC50t

[4] = molecular target: T1, PADI4; experiment: Surface plasmon resonance (SPR), single cycle kinetics; format: binding; conditions: for Ki: k-1/k+1
Description: S8. Surface plasmon resonance (SPR)
Using a Biacore S200 (GE Healthcare), biotinylated His-PADI4 (80 nM) was immobilised on a CAP chip (GE Healthcare) to a response unit of approx. 3000. At 25 °C, single cycle kinetics mode was used with 5 samples of a 3-fold dilution series of peptides PADI4_3_H4(2), cP4_2, […]
mM HEPES, 150 mM NaCl, 10 mM CaCl2, 0.05% Tween-20, 0.1% DMSO (pH 7.5). After each cycle, regeneration of the chip was carried out as per the manufacturer’s protocol. Data were analysed with the Biacore S200 Evaluation Software, each in triplicate. Warhead-containing peptides were analysed using the two-state reaction model, with the rate constant for the reverse second step (k-2) set to zero. The equilibrium constant of the reversible binding step, Ki, was calculated as the ratio of k-1/k+1 and the rate constant of the irreversible chemical step, kinact, as k+2. The Arg4, Cit4 and Me4 peptides were fitted using a 1:1 binding model. […]

[5] = 1 h preincubation of peptide and PADI4, 10 mM CaCl2, read-out: IC50 Values 1 h preincubation
[6] = no preincubation of peptide and PADI4, 10 mM CaCl2, read-out: IC50 Values 0 h preincubation
[7] = T=0, values starred, read-out: PADI4 activity normalised to 0.1% DMSO
[8] = T=1, read-out: PADI4 activity normalised to 0.1% DMSO
[9] = T=0, read-out: PADI4 activity normalised to 0.1% DMSO
[10] = each replicate, read-out: k2 / kinact
[11] = two-state reaction model, k+2, read-out: SPR kinact (converted)

T1 sequence (Q9UM07 whole entry): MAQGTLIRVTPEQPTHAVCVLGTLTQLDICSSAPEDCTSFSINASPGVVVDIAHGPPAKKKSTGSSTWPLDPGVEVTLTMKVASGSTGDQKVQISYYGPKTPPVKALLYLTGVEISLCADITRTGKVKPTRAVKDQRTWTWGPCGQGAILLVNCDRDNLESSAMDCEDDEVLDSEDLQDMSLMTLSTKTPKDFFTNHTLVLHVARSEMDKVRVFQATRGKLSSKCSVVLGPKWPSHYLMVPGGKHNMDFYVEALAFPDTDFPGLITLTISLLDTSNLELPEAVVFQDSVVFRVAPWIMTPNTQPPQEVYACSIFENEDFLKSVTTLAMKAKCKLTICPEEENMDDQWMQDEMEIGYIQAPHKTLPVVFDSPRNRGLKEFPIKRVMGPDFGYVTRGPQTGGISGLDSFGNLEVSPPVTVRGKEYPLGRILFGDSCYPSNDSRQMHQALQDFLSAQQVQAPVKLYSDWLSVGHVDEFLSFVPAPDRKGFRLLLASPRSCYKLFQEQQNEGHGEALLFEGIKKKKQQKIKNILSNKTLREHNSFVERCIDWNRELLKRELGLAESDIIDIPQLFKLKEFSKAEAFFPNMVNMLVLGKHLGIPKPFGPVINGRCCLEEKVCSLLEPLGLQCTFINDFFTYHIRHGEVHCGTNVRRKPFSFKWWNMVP

WT
Citrullination activity of PADI4 WT / C645A (Figure S4c) ([1]; +EDTA): 0.259 and 0.261 and 0.247 and 0.193 and 0.23 and 0.231
Citrullination activity of PADI4 WT / C645A (Figure S4c) ([1]; -EDTA): 1.114 and 1.151 and 1.275 and 1.3 and 1.248

C645A
Citrullination activity of PADI4 WT / C645A (Figure S4c) ([1]; +EDTA): 0.268 and 0.278 and 0.279 and 0.186 and 0.254 and 0.214
Citrullination activity of PADI4 WT / C645A (Figure S4c) ([1]; -EDTA): 0.211 and 0.22 and 0.222 and 0.281 and 0.285 and 0.262

PADI4
Absorbance at 540 nm [1]: 1.538 and 1.537 and 1.638 and 1.921 and 1.811 and 1.856

N=C(N)NCCC[C@@H]1NC(=O)[C@H](CCCCN)NC(=O)[C@H](CC(N)=O)NC(=O)[C@H](Cc2ccccc2)NC(=O)[C@H](CC(=O)O)NC(=O)[C@H](Cc2c[nH]c3ccccc23)NC(=O)[C@H](CC(N)=O)NC(=O)[C@H](CCCNC(=N)CF)NC(=O)[C@H](Cc2ccc(O)cc2)NC(=O)[C@H](Cc2c[nH]c3ccccc23)NC(=O)[C@@H](Cc2ccc(O)cc2)NC(=O)CSC[C@@H](C(=O)NCC(N)=O)NC1=O [cP4_10, yWY(2)NWDFNKRCG] ({CH2CO}-[dY]WY[Orn(fluoroacetimidoyl)]NWDFNKRCG-NH2; thioether N-12)
IC50 [2, 5]: 0.093 ± 0.002 µM
IC50 [2, 6]: 3.1 ± 0.01 µM
remaining activity at 0.003 µM [2, 7]: 93.1%
remaining activity at 0.003 µM [2, 8]: 98.1%
remaining activity at 0.01 µM [2, 7]: 92%
remaining activity at 0.01 µM [2, 8]: 81.1%
remaining activity at 0.03 µM [2, 9]: 91.3%
remaining activity at 0.03 µM [2, 8]: 82.2%
remaining activity at 0.1 µM [2, 9]: 90.6%
remaining activity at 0.3 µM ([2]; peptide 0.3 µM, T=0, read-out: PADI4 activity normalised to 0.1% DMSO): 91.5%
remaining activity at 1 µM [2, 9]: 75.7%
remaining activity at 3 µM [2, 9]: 48.4%
remaining activity at 10 µM [2, 9]: 19.7%
kinact/KI [3]: 1450 M⁻¹ s⁻¹
IC50 ([3]; 15 mins): 7.24 µM and 6.94 µM and 5.53 µM
IC50 ([3]; 30 mins): 3.82 µM and 3.29 µM and 3.6 µM
IC50 ([3]; 45 mins): 2.72 µM and 2.38 µM and 2.64 µM
IC50 ([3]; 60 mins): 2.15 µM and 2.09 µM and 2.33 µM
IC50 ([3]; 75 mins): 1.96 µM and 1.81 µM and 2.18 µM
Ki [3]: 1.5 ± 0.3 µM
kinact [3]: 0.00217 s⁻¹
kinact/KI [4]: 33400 M⁻¹ s⁻¹
k2 / kinact ([4]; each replicate): 0.0034 s⁻¹
kinact [4, 10]: 0.0041 s⁻¹
kinact [4, 11]: 0.00383 s⁻¹
Ki ([4]; two-state reaction model): 0.12 ± 0.1 µM

CC(C)[C@@H]1NC(=O)[C@@H](Cc2ccc(O)cc2)NC(=O)CSC[C@@H](C(=O)NCC(N)=O)NC(=O)[C@H](Cc2ccc(O)cc2)NC(=O)[C@H](CCCCN)NC(=O)[C@H](Cc2c[nH]c3ccccc23)NC(=O)[C@H](CCC(=O)O)NC(=O)[C@H](CCCCN)NC(=O)[C@H](CCCNC(=N)CF)NC(=O)[C@H](CO)NC(=O)[C@H](Cc2ccc(O)cc2)NC1=O [cP4_7, yVYS(2)KEWKYCG] ({CH2CO}-[dY]VYS[Orn(fluoroacetimidoyl)]KEWKYCG-NH2; thioether N-11)
IC50 [2, 5]: 0.16 ± 0.02 µM
IC50 [2, 6]: 8 ± 1.2 µM
remaining activity at 0.003 µM [2, 7]: 99.1%
remaining activity at 0.003 µM [2, 8]: 99.2%
remaining activity at 0.01 µM [2, 7]: 99.2%
remaining activity at 0.1 µM [2, 9]: 100%
remaining activity at 1 µM [2, 9]: 93.8%
remaining activity at 3 µM [2, 9]: 79%
remaining activity at 10 µM [2, 9]: 49.3%
remaining activity at 30 µM ([2]; peptide 30 µM, T=0, read-out: PADI4 activity normalised to 0.1% DMSO): 20.9%
kinact/KI [3]: 300 M⁻¹ s⁻¹
IC50 ([3]; 15 mins): 27.7 µM and 48.2 µM and 40.3 µM
IC50 ([3]; 30 mins): 12.5 µM and 21.4 µM and 18.5 µM
IC50 ([3]; 45 mins): 8.85 µM and 10 µM and 8.94 µM
IC50 ([3]; 60 mins): 6.22 µM and 7.03 µM and 7.47 µM
IC50 ([3]; 75 mins): 5.35 µM and 5.67 µM and 6.53 µM
Ki [3]: 4.3 ± 1.1 µM
kinact [3]: 0.00128 s⁻¹
kinact/KI [4]: 5720 M⁻¹ s⁻¹
k2 / kinact ([4]; each replicate): 0.0094 s⁻¹
kinact [4, 10]: 0.0086 s⁻¹
kinact [4, 11]: 0.00917 s⁻¹
Ki ([4]; two-state reaction model): 1.6 ± 0.1 µM

PADI2
Absorbance at 540 nm [1]: 0.974 and 1.004 and 1.007 and 0.7767 and 0.7637 and 0.7657

B1: PADI1 (protein, UniProt Q9ULC6 1-663, looked up)
Protein-arginine deiminase …: MAPKRVVQLSLKMPTHAVCVVGVEAHVDIHSDVPKGANSFRVSGSSGVEVFMVYNRTRVKEPIGKARWPLDTDADMVVSVGTASKELKDFKVRVSYFGEQEDQALGRSVLYLTGVDISLEVDTGRTGKVKRSQGDKKTWRWGPEGYGAILLVNCDRDNHRSAEPDLTHSWLMSLADLQDMSPMLLSCNGPDKLFDSHKLVLNVPFSDSKRVRVFCARGGNSLSDYKQVLGPQCLSYEVERQPGEQEIKFYVEGLTFPDADFLGLVSLSVSLVDPGTLPEVTLFTDTVGFRMAPWIMTPNTQPPEELYVCRVMDTHGSNEKFLEDMSYLTLKANCKLTICPQVENRNDRWIQDEMEFGYIEAPHKSFPVVFDSPRNRGLKDFPYKRILGPDFGYVTREIPLPGPSSLDSFGNLDVSPPVTVGGTEYPLGRILIGSSFPKSGGRQMARAVRNFLKAQQVQAPVELYSDWLSVGHVDEFLTFVPTSDQKGFRLLLASPSACLKLFQEKKEEGYGEAAQFDGLKHQAKRSINEMLADRHLQRDNLHAQKCIDWNRNVLKRELGLAESDIVDIPQLFFLKNFYAEAFFPDMVNMVVLGKYLGIPKPYGPIINGRCCLEEKVQSLLEPLGLHCIFIDDYLSYHELQGEIHCGTNVRRKPFPFKWWNMVP
Absorbance at 540 nm [1]: 1.397 and 1.419 and 1.464 and 1.243 and 1.309 and 1.332
